Source: publication PMC10922478 (Environmental research, 2023)

Key:
[1] = type: in vivo; conditions: human urine after limonene inhalation
[2] = Stable isotope tracing in mouse urine after i.p. limonene or limonene-d5; conditions: after limonene / limonene-d5 66.8 mg/kg i.p.; overnight urine
[3] = ref Falk-Filipsson et al., 1993; cited from earlier work

| SMILES | Observed Tmax ([1]; creatinine-normalized peak response) [h] | Elimination t1/2 ([1]; pseudo one-compartment model) [h] | Ka (first-order urinary generation rate constant) ([1]; pseudo one-compartment model) [h⁻¹] | Ke (first-order urinary elimination rate constant) ([1]; pseudo one-compartment model) [h⁻¹] | Detection in mouse urine [2] | Half-life in blood (t1/2α) [3] |
| --- | --- | --- | --- | --- | --- | --- |
| C=C(C)C1CCC(C(=O)O)CC1 (stereo not drawn) [LM1, DHPA] | 1 | 1.01 ± 0.40 | 0.93 ± 0.37 | 0.68 ± 0.27 | absent | – |
| C=C(C)[C@H]1CC=C(C)CC1 [Limonene] | – | – | – | – | – | ~ 3 min |
